Results published in patent publication US8246758B2, “Neutral or alkaline medium chain peroxycarboxylic acid compositions and methods employing them” (Ecolab USA Inc., priority 2004, dated 2012).
Where two headings read alike, the source gives them in different places.

Experiments:
Mycobacterium bovis BCG = format: cell-based
[1] = tested on: spores of Clostridium sporogenes ATCC 3584; format: cell-based; conditions: pH 6.5, 10 hrs, Ambient
[2] = tested on: Trichophyton mentagrophytes ATCC 9533; test: AOAC Fungicidal Activity of Disinfectants (955.17); format: cell-based; conditions: pH 6.5, 5 min, Ambient
Description: Activity against fungus, Trichophyton mentagrophytes ATCC 9533, was evaluated using the Fungicidal Activity of Disinfectants using Trichophyton mentagrophytes, Official Methods of Analysis of the Association of Official Analytical Chemists, paragraph 955.17. Composition KK was adjusted to pH 6.5 in synthetic hard water (400 ppm hardness) and tested for activity in the presence of a 5% organic soil load. Antimicrobial efficacy was determined by exposing stainless steel penicyclinders containing dried Trichophyton mentagrophytes to 10 mL of the test substance at the desired concentration, temperature and for the desired contact time. After which each penicylinder was removed aseptically and transferred to a neutralizing subculture medium. A peroxyacetic acid composition was also tested by this procedure.

[3] = tested on: Pseudomonas aeruginosa biofilm; test: Biofilm removal from stainless steel coupon

CC(=O)OO [Peroxyacetic Acid]
concentration of peroxyacetic acid needed to be as effective (Mycobacterium bovis BCG): ≥ 1250 ppm
# Negative Tubes/# Tubes Tested ([1]; 1000 ppm): 59/60
# Negative Tubes/# Tubes Tested ([2]; 1000 ppm): 10/10

[Na+].[OH-] [caustic, NaOH]
survivors on enrichment of treated coupons ([3]; caustic (3% of 50% NaOH) for 3 min at 160° F.): survivors on one of two coupons
biofilm cleaning performance, ranking ([3]; total 6 min at 160° F., synthetic hard water 500 ppm, acridine orange fluorescence imaging): lastly

CCCCCCCC(=O)OO [Peroxyoctanoic Acid]
# Negative Tubes/# Tubes Tested ([1]; 400 ppm): 60/60
# Negative Tubes/# Tubes Tested ([2]; 400 ppm): 10/10
